Data from article PMC9949698, “Visible-Light-Controlled Histone Deacetylase Inhibitors for Targeted Cancer Therapy” (Journal of Medicinal Chemistry, 2023).
pIC50: −log10 of the molar value. Like-named read-outs stand apart in the source and are kept apart here.

What was measured:
[1] = tested on: HT29 cells; assay: HT29 cell viability, MTS assay, 50 μM; type: cell-based; details: 48 h; for effect on viability when preilluminated: preilluminated (380 or 550 nm)
Procedure: (§1) HDACis have been proposed as a potential therapeutic strategy against cancer stem cells (CSCs).[39],[40] We selected three cell lines that have a strong CSC phenotype (HT29,[41],[42] MCF7[43]−[45] and KG1[46]) and tested the best compounds at 50 μM under dark and illumination conditions.
(§2) HeLa, MCF7, and HT29 cells were maintained in adherent cultures in DMEM supplemented with 10% FBS. KG1 cells were maintained in a suspension culture in IMDM supplemented with 20% FBS.
(§3) Stock solutions of the compounds were heated to 60 or 80 °C to obtain solutions with the maximum amount of the trans isomer (dark). For the “light” solutions, the stock solutions were illuminated with 96-well LED array plates for 3 min at the maximum potency. The solutions were then serially diluted with DMEM to give 20 times the desired final concentration, maintaining DMSO at 10%.
(§4) Cells were seeded in 96-well black flat bottom plates with a clear bottom at a density of 5 × 10^3 cells/well (HeLa) or 1 × 10^4 cells/well (MCF7, HT29, and KG1), in a volume of 95 μL. After 24 h, 5 μL of compound solutions (20×) were added. Cells were incubated for 48 h.
(§5) Viability of HeLa, MCF7, and […] cells was determined with a CellTiter 96 assay (Promega), according to the manufacturer’s instructions. Briefly, 20 μL of CellTiter 96 reagent was added to each well, the plates were incubated at 37 °C for 2 h, and the absorbance at 490 nm was recorded. Viability is expressed as a percentage with respect to the nontreated cells.

[2] = biological target: T1, human recombinant HDAC1 (Homo sapiens, UniProt Q13547); assay: Fluorogenic assay with human recombinant HDAC1, dark or illumination; type: biochemical
T1 construct: purchased BPS Bioscience
T1 sequence (Q13547 whole entry): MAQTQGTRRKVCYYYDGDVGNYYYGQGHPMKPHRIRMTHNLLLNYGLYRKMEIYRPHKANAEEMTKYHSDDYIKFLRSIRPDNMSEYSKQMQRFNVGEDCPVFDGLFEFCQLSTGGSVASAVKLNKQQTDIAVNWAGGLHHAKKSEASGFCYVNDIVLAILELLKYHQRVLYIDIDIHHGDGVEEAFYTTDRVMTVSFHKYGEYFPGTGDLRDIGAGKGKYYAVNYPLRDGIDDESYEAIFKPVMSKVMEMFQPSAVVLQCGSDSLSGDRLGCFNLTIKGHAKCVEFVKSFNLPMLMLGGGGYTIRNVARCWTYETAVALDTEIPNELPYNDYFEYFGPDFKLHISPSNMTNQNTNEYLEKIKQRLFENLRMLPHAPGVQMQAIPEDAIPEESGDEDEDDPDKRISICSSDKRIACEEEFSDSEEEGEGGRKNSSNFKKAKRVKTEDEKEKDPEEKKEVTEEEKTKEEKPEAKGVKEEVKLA
Procedure: To study the inhibition of HDAC enzymes by the compounds, we used a fluorogenic assay with human recombinant HDAC1.[32] The enzyme was incubated with an acetylated substrate and each inhibitor for 1 h at room temperature, under either dark or light conditions. We opted for illumination throughout the incubation period to maintain the maximum proportion of cis under light conditions. […] Then, the deacetylated substrate generated a fluorescent coumarin after incubation of the mixture with trypsin at 37 °C for 20 min.
Stock solutions of the compounds were diluted to 1 mM in DMSO and then heated to 60 or 80 °C to obtain solutions with the maximum amount of the trans isomer (dark). […] The 1 mM solutions were then serially diluted with HDAC buffer to 10 times the desired concentration, maintaining DMSO at 10%.
In control wells without the compound, inhibitor, or enzyme, HDAC buffer was added instead. […] Then, 50 μL of the stop solution was added and the plates were incubated at 37 °C for 20 min in the dark. Fluorescence was measured at a λem of 460 nm and a λex of 380 nm. Enzyme activity is expressed as a percentage with respect to the nontreated cells, after subtracting the blank (well with no enzyme and no compound).

[3] = UV–vis spectra and optimal isomerization wavelengths; type: physicochemical; details: for λcis (optimal wavelength trans to cis) / λtrans (optimal wavelength cis to trans): UV–vis at 25–50 μM in DMSO, Teleopto plates (Table 1)
Procedure: Ultraviolet–visible (UV–vis) spectra were recorded using a Tecan Spark 20M Multimode Microplate reader. Samples (200 μL of compound solution/well) were prepared at […] in DMSO. Samples were measured between 300 and 800 nm with 2 nm fixed intervals in 96-well transparent plates. Illumination at different wavelengths was performed for 2 min using 96-well LED array plates (LEDA Teleopto) placed below the samples. […] Potencies were measured using a Thorlabs PM100D power energy meter connected with a standard photodiode power sensor (S120VC).

[4] = E/Z composition under light or temperature conditions by HPLC; type: physicochemical
[5] = tested on: HeLa cells; assay: HeLa cell viability, MTS assay, dark or preillumination; type: cell-based; details: for pIC50: Homo sapiens, HeLa; for IC50(dark)/IC50(light): Table 5; for viability decreasing to: under illumination
Procedure: We then proceeded to evaluate the effect of the compounds in a viability assay against HeLa cells.
as §2
Stock solutions of the compounds were heated to 60 or 80 °C to obtain solutions with the maximum amount of the trans isomer (dark). […] The solutions were then serially diluted with DMEM to give 20 times the desired final concentration, maintaining DMSO at 10%.
Cells were seeded in 96-well black flat bottom plates with a clear bottom at a density of 5 × 10^3 cells/well (HeLa) or 1 × 10^4 cells/well (MCF7, HT29, and KG1), in a volume of 95 μL.
as §5

[6] = tested on: KG1 cells; assay: KG1 cell viability, CellTiterGlo assay, 50 μM; type: cell-based; details: 48 h; for effect on viability when preilluminated: preilluminated (380 or 550 nm)
Procedure: as §1, §2, §3, §4
Viability of KG1 cells was determined with a CellTiter-Glo (Promega) assay, according to the manufacturer’s instructions. Briefly, 100 μL of CellTiter-Glo reagent was added to each well, the plates were kept at room temperature for 10 min, and the luminescence was recorded. Viability is expressed as a percentage with respect to the nontreated cells.

[7] = tested on: MCF7 cells; assay: MCF7 cell viability, MTS assay, 50 μM; type: cell-based; details: 48 h; for effect on viability when preilluminated: preilluminated (380 or 550 nm)
Procedure: as §1, §2, §3, §4, §5

[8] = UV–vis spectra and optimal isomerization wavelengths; type: physicochemical; details: 25–50 μM in DMSO, using CoolLed at 217 mW/cm^2 instead of Teleopto plates
[9] = cited from earlier work
[10] = continuous illumination 550 nm (Table 4), read-out: IC50 light
[11] = dark (Table 4), read-out: IC50 dark
[12] = UV–vis spectra at 25–100 μM in DMSO (Table 3)
[13] = HPLC at isosbestic point (290–336 nm), 100 μM in DMSO after illumination with λcis (Table 3)
[14] = HPLC at isosbestic point (290–336 nm), 100 μM in DMSO after illumination with λtrans (Table 3)
[15] = preillumination 550 nm, 48 h, read-out: IC50 light (concentration that reduces cell viability by half)
[16] = dark vs 365 or 380 nm (Table 2), fold
[17] = dark, 1 h at room temperature (Table 2), read-out: IC50 dark
[18] = illumination 365 or 380 nm, 1 h at room temperature (Table 2), read-out: IC50 light
[19] = UV–vis spectra at 25–50 μM in DMSO (Table 1)
[20] = HPLC at isosbestic point (310–338 nm), 100 μM in DMSO after illumination with λcis (Table 1)
[21] = HPLC at isosbestic point (310–338 nm), 100 μM in DMSO after illumination with λtrans (Table 1)
[22] = preillumination 380 nm, 48 h, read-out: IC50 light (concentration that reduces cell viability by half)

Compound | effect on viability in the dark [1] | effect on viability when preilluminated [1] | IC50(dark)/IC50(light) ([2]; Table 4) | pIC50 [2, 10] | pIC50 [2, 11] | λcis [3, 12] [nm] | λmax cis [3, 12] [nm] | λmax trans [3, 12] [nm] | λtrans [3, 12] [nm] | % cis at λcis [4, 13] [%] | % trans at λtrans [4, 14] [%] | pIC50 [5, 15] | IC50(dark)/IC50(light) [5] | cell death under dark vs light conditions ([5]; in words) | effect on viability in the dark [6] | effect on viability when preilluminated [6] | effect on viability in the dark [7] | effect on viability when preilluminated [7] | IC50(dark)/IC50(light) [2, 16] | λmax trans [3, 19] [nm] | also measured
COc1cc(F)c(/N=N/c2c(F)cc(/C=C/C(=O)Nc3ccccc3N)cc2Cl)c(Cl)c1 [Compound 32c, (E)-N-(2-Aminophenyl)-3-(3-chloro-4-((E)-(2-chloro-6-fluoro-4-methoxyphenyl)diazenyl)-5-fluorophenyl)acrylamide] | little or no effect | significantly reduced the viability | >2.6 | 5.41 | < 5.00 | 550 | 442 | 358 | 455 | 68 | 85 | 4.43 | >2.7 | inducing cell death only under light conditions | little or no effect | significantly reduced the viability | little or no effect | significantly reduced the viability | – | – | activity at the highest tested concentration in the dark ([2]; 10 μM, dark): no or little activity; IC50 under illumination, in words ([2]; continuous illumination): low micromolar range
COc1cc(F)c(/N=N/c2c(F)cc(C(=O)Nc3ccccc3N)cc2F)c(F)c1 [Compound 38a, (E)-N-(2-Aminophenyl)-4-((2,6-difluoro-4-methoxyphenyl)diazenyl)-3,5-difluorobenzamide] | little or no effect | significantly reduced the viability | ≈5.9 | 5.77 | ~5.00 | 550 | 428 | 348 | 455 | 84 | 67 | 4.54 | >3.4 | inducing cell death only under light conditions | little or no effect | significantly reduced the viability | little or no effect | significantly reduced the viability | – | – | pIC50 ([2]; supplementary CSV, read-out: HDAC1 IC50 dark): 5.00; pIC50 ([5]; dark, 48 h, read-out: IC50 dark (concentration that reduces cell viability by half)): < 4.00
COc1ccc(/N=N/c2ccc(/C=C/C(=O)Nc3cc(-c4cccs4)ccc3N)cc2)cc1 [Compound 20, (E)-N-(2-Amino-5-(thiophen-2-yl)phenyl)-3-(4-((E)-(4-methoxyphenyl)diazenyl)phenyl)acrylamide] | little or no effect | significantly reduced the viability | – | – | – | – | – | – | – | – | – | – | >14 | – | little or no effect | significantly reduced the viability | little or no effect | significantly reduced the viability | >29 | 378 | pIC50 [2, 17]: < 5.00; pIC50 [2, 18]: 6.46; λcis (optimal wavelength trans to cis) [3]: 380 nm; λtrans (optimal wavelength cis to trans) [3]: 550 nm; % cis at λcis [4, 20]: 63%; % trans at λtrans [4, 21]: 82%; pIC50 [5, 22]: 5.13; pIC50 ([5]; preillumination, 24 h, read-out: IC50 (365 nm, 24 h)): 4.89; IC50 dark (concentration that reduces cell viability by half) ([5]; dark, 48 h): no activity; viability decreasing to ([5]; 48 h): 30%
COc1ccc(/N=N/c2ccc(/C=C/C(=O)Nc3ccccc3N)cc2)cc1 [Compound 11, (E)-N-(2-Aminophenyl)-3-(4-((E)-(4-methoxyphenyl)diazenyl)phenyl)acrylamide] | little or no effect | significantly reduced the viability | – | – | – | – | – | – | – | – | – | – | >8.3 | – | little or no effect | significantly reduced the viability | little or no effect | significantly reduced the viability | >50 | 378 | pIC50 [2, 17]: < 5.00; pIC50 [2, 18]: 6.70; stability after multiple cis/trans isomerization cycles ([3]; 25 μM in DMSO, 380–550 nm cycles, 2 min each): stable; λcis (optimal wavelength trans to cis) [3]: 380 nm; λtrans (optimal wavelength cis to trans) [3]: 550 nm; % cis at λcis [4, 20]: 80%; % trans at λtrans [4, 21]: 67%; pIC50 [5, 22]: 4.92; IC50 dark (concentration that reduces cell viability by half) ([5]; dark, 48 h): no activity; viability decreasing to ([5]; 48 h): 30%
CN(C)c1ccc(/N=N/c2ccc(C(=O)Nc3ccccc3N)cc2)cc1 [Compound 2] | – | – | – | – | – | – | – | – | – | – | – | – | – | – | – | – | – | – | – | 450 | activity under dark and illumination conditions ([5]; in words): inactive; λcis [8]: 460^5 nm; λtrans [8]: 580^5 nm; activation wavelength [9]: 470 nm; half-life ([9]; room temperature in PBS): 60 μs
